20 compounds from patent publication US9187472B2 (AbbVie Inc., priority 2012, dated 2015) can be followed below.

In assay [1] the test system is PC3 cells. Description: NAMPT Cell Proliferation Assay. The conditions noted are these: Homo sapiens, PC-3, 120 h, 5 days incubation, cell viability by Cell Titer Glo. The assay is classed as cell-based. A digest of the protocol:
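Following overnight attachment in RPMI with 10% heat-inactivated FBS, PC3 cells at 500 per well receive compounds spanning 10 μM down to 1×10^−5 μM. Growth is assessed by luminescent viability read after 5 days.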
A general note: ATP-based viability assays read luminescence as a measure of living cells.

Assay [2] deals with NAMPT (Homo sapiens, UniProt P43490). Description: TR-FRET Binding Assay of NAMPT with PRPP. The conditions noted are these: with 200 μM PRPP and 2.5 mM ATP; 2 nM NAMPT, 2 nM probe, 16 hours equilibration. The method in brief:
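Substrate-containing variant: 200 μM PRPP plus 2.5 mM ATP are added to 2 nM NAMPT and 2 nM probe, with a 16-hour incubation ahead of TR-FRET reading.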
For orientation: Time-resolved FRET reads energy transfer from a long-lived donor to a nearby acceptor.

Assay [3] has as its target NAMPT (human, recombinant, C-terminally His-tagged) (Homo sapiens, UniProt P43490). As to the kind of experiment: Time-Resolved Fluorescence Resonance Energy Transfer (TR-FRET) Binding Assay of NAMPT. Particulars: without substrates; 6.8 nM NAMPT, 200 nM probe, 3 hours equilibration. A digest of the protocol:
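In a displacement format, the nicotinamide-site tracer at 200 nM competed with test compound for 6.8 nM enzyme detected via 1 nM terbium anti-His antibody; incubation lasted 3 hours at room temperature in 50 mM HEPES pH 7.5, 100 mM NaCl. Normalized 520/495 nm emission ratios gave IC50 values.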

Structures are written as SMILES.

What is called IC50 is the concentration that gives 50% inhibition.

Chain of NAMPT (P43490 whole entry): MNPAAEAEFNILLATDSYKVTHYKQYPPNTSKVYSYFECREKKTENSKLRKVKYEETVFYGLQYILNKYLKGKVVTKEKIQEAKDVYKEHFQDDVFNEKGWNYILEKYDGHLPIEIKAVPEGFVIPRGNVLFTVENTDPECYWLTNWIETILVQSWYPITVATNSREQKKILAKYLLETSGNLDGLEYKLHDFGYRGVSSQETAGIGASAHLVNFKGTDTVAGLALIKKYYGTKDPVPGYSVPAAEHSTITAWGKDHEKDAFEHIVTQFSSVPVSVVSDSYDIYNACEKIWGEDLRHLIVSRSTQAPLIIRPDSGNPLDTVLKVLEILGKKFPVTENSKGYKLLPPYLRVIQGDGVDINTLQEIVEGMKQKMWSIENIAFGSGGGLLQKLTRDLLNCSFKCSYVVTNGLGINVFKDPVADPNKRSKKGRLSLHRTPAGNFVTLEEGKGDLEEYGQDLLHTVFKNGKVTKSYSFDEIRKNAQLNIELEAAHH
Chain of NAMPT (human, recombinant, C-terminally His-tagged) (P43490 whole entry): as above

As to `CC(C)OCC(=O)N1CC(c2ccc(NC(=O)NCc3ccn4ccnc4c3)cc2)C1` [Example 456, 1-(imidazo[1,2-a]pyridin-7-ylmethyl)-3-(4-{1-[(propan-2-yloxy)acetyl]azetidin-3-yl}phenyl)urea], the IC50 was determined as 49.6 nM in assay [1], 0.169 nM in assay [2] and 389 nM in assay [3].

For the compound `CC(C)OCC(=O)N1CCC(c2ccc(NC(=O)NCc3ccn4ccnc4c3)cc2)C1` (stereo not drawn) [Example 384, 1-(imidazo[1,2-a]pyridin-7-ylmethyl)-3-(4-{1-[(propan-2-yloxy)acetyl]pyrrolidin-3-yl}phenyl)urea], the IC50 in assay [1] was found to be 51.7 nM; in assay [2], 0.375 nM; in assay [3], 406 nM.

Regarding `O=C(NCc1ccc2nccn2c1)c1cnc(N(CC2CCCO2)C(=O)CCc2cnoc2)s1` (stereo not drawn) [Example 135, N-(imidazo[1,2-a]pyridin-6-ylmethyl)-2-{[3-(1,2-oxazol-4-yl)propanoyl](tetrahydrofuran-2-ylmethyl)amino}-1,3-thiazole-5-carboxamide], the IC50 amounted to 6.36 nM in assay [1], 1.27 nM in assay [2] and 73.8 nM in assay [3].

Take `O=C(NCc1ccn2ccnc2c1)c1ccc(C2=CCN(S(=O)(=O)C3CC3)CC2)s1` [Example 246, 5-[1-(cyclopropylsulfonyl)-1,2,3,6-tetrahydropyridin-4-yl]-N-(imidazo[1,2-a]pyridin-7-ylmethyl)thiophene-2-carboxamide]: the results for the IC50 in assay [1], in assay [2] and in assay [3] were 2.43 nM, 0.22 nM and 73.2 nM, respectively.

`CCCC(=O)N1CCC(Oc2ccc(C(=O)NCc3ccc4nccn4c3)cc2)CC1` [Example 168, 4-[(1-butanoylpiperidin-4-yl)oxy]-N-(imidazo[1,2-a]pyridin-6-ylmethyl)benzamide]: the IC50 in assay [1] turned out to be 208 nM; in assay [2], 0.951 nM; in assay [3], 1110 nM.

`O=C(NCc1ccc2nccn2c1)c1cnc(N2CC(c3ccccc3)OC2=O)s1` (stereo not drawn) [Example 122, N-(imidazo[1,2-a]pyridin-6-ylmethyl)-2-(2-oxo-5-phenyl-1,3-oxazolidin-3-yl)-1,3-thiazole-5-carboxamide]: the IC50 was 172 nM in assay [1], 4.76 nM in assay [2] and 255 nM in assay [3].

With `COCCOCC(=O)N1CC=C(c2ccc(NC(=O)Nc3ccc4nccn4c3)cc2)CC1` [Example 32, 1-imidazo[1,2-a]pyridin-6-yl-3-(4-{1-[(2-methoxyethoxy)acetyl]-1,2,3,6-tetrahydropyridin-4-yl}phenyl)urea], the IC50 in assay [1] was determined as 284 nM; in assay [2], 0.169 nM; in assay [3], 906 nM.

For the compound `O=C(NCc1ccn2ccnc2c1)c1cnc(C2CCN(C(=O)c3ccccc3)C2)s1` (stereo not drawn) [Example 807, 2-(1-benzoylpyrrolidin-3-yl)-N-(imidazo[1,2-a]pyridin-7-ylmethyl)-1,3-thiazole-5-carboxamide], the IC50 stood at 100 nM in assay [1], 0.509 nM in assay [2] and 628 nM in assay [3].

As to `O=C(NCc1ccn2ccnc2c1)c1ccc(C2CN(C(=O)C3CCCC3)C2)cc1` [Example 631, 4-[1-(cyclopentylcarbonyl)azetidin-3-yl]-N-(imidazo[1,2-a]pyridin-7-ylmethyl)benzamide], the values for the IC50 in assay [1], in assay [2] and in assay [3] were 77.2 nM, 1.26 nM and 616 nM, respectively.

Take `CC1CC1C(=O)N1CCC(c2ccc(C(=O)NCc3ccn4ccnc4c3)cc2)C1` (stereo not drawn) [Example 580, N-(imidazo[1,2-a]pyridin-7-ylmethyl)-4-{1-[(2-methylcyclopropyl)carbonyl]pyrrolidin-3-yl}benzamide]: the IC50 in assay [1] was found to be 212 nM; in assay [2], 0.798 nM; in assay [3], 1470 nM.

`O=C(NCc1ccn2ccnc2c1)Nc1ccc(C2CCN(C(=O)C3CCC(F)(F)CC3)CC2)cc1` [Example 715, 1-(4-{1-[(4,4-difluorocyclohexyl)carbonyl]piperidin-4-yl}phenyl)-3-(imidazo[1,2-a]pyridin-7-ylmethyl)urea]: the results for the IC50 in assay [1], in assay [2] and in assay [3] were 3.49 nM, 0.771 nM and 65.9 nM, respectively.

As for `O=C(NCc1ccn2ccnc2c1)Nc1ccc(C2CCN(C(=O)CC3CC3)CC2)cc1` [Example 712, 1-{4-[1-(cyclopropylacetyl)piperidin-4-yl]phenyl}-3-(imidazo[1,2-a]pyridin-7-ylmethyl)urea], the 50% inhibitory concentration (IC50) in assay [1] stood at 5.8 nM; in assay [2], 0.907 nM; in assay [3], 91.1 nM.

Turning to `O=C(NCc1ccn2ccnc2c1)Nc1ccc(C2CCN(C(=O)CC(F)(F)F)CC2)cc1` [Example 713, 1-(imidazo[1,2-a]pyridin-7-ylmethyl)-3-{4-[1-(3,3,3-trifluoropropanoyl)piperidin-4-yl]phenyl}urea], the IC50 in assay [1] came out at 2.86 nM; in assay [2], 0.689 nM; in assay [3], 44.3 nM.

As for `O=C(NCc1ccn2ccnc2c1)c1ccc(C2CN(C(=O)c3cc(F)cc(F)c3)C2)cc1` [Example 648, 4-[1-(3,5-difluorobenzoyl)azetidin-3-yl]-N-(imidazo[1,2-a]pyridin-7-ylmethyl)benzamide], the IC50 is 203 nM in assay [1], 1.06 nM in assay [2] and 661 nM in assay [3].

Turning to `O=C(NCc1ccn2ccnc2c1)Nc1ccc(C2CCN(C(=O)CCC(F)(F)F)CC2)cc1` [Example 714, 1-(imidazo[1,2-a]pyridin-7-ylmethyl)-3-{4-[1-(4,4,4-trifluorobutanoyl)piperidin-4-yl]phenyl}urea], the IC50 in assay [1] came out at 17.4 nM; in assay [2], 0.991 nM; in assay [3], 168 nM.

Regarding `O=C(NCc1ccn2ccnc2c1)c1ccc(C2CCN(C(=O)[C@H]3CCOC3)C2)cc1` (stereo partly drawn) [Example 375, N-(imidazo[1,2-a]pyridin-7-ylmethyl)-4-{1-[(3S)-tetrahydrofuran-3-ylcarbonyl]pyrrolidin-3-yl}benzamide], the IC50 in assay [1] was > 10000 nM; in assay [2], 0.241 nM; in assay [3], 986 nM.

Regarding `O=C(NCc1ccc2nccn2c1)c1cnc(N2CCC(c3ccccc3)C2)s1` (stereo not drawn) [Example 86, N-(imidazo[1,2-a]pyridin-6-ylmethyl)-2-(3-phenylpyrrolidin-1-yl)-1,3-thiazole-5-carboxamide], the IC50 in assay [1] was determined as 5720 nM; in assay [2], 11.9 nM; in assay [3] it was 2040 nM.

Regarding `O=C(Nc1ccc(C(=O)NCC2CCCO2)cc1)Nc1ccc2nccn2c1` (stereo not drawn) [Example 16], the IC50 stood at 325 nM in assay [1], 0.396 nM in assay [2] and 409 nM in assay [3].

On to `CC(C)OCCNC(=O)N(CC1CCOCC1)c1ncc(C(=O)NCc2ccc3nccn3c2)s1` [Example 152, N-(imidazo[1,2-a]pyridin-6-ylmethyl)-2-[{[2-(propan-2-yloxy)ethyl]carbamoyl}(tetrahydro-2H-pyran-4-ylmethyl)amino]-1,3-thiazole-5-carboxamide], for which the IC50 in assay [1] is 28.3 nM; in assay [2], 6.91 nM; in assay [3], 3600 nM.

With `CS(=O)(=O)N1CC=C(c2ccc(C(=O)NCc3ccn4ccnc4c3)s2)CC1` [Example 242, N-(imidazo[1,2-a]pyridin-7-ylmethyl)-5-[1-(methylsulfonyl)-1,2,3,6-tetrahydropyridin-4-yl]thiophene-2-carboxamide], the values for the IC50 in assay [1], in assay [2] and in assay [3] were 7.56 nM, 0.169 nM and 57.1 nM, respectively.
